Laboratory results as given in patent US10968210B2, “Diamino-alkylamino-linked arylsulfonamide compounds with selective activity in voltage-gated sodium channels” (Merck Sharp & Dohme Corp., priority 2016, dated 2021).

Biological target: T1, human Nav 1.7 channels stably expressed in HEK 293 cells (Homo sapiens, UniProt Q15858)
T1 construct: expressed in transfected cells; host or cells: HEK 293
Assay: IonWorks Quattro automated patch-clamp, inactivated state block of Nav 1.7
Format: cell-based
Details: double-pulse protocol, HEK 293 cells held at -100 mV, read-out: potency for the Nav 1.7 sodium ion channel (IC50, IonWorks)
Protocol: IonWorks® Experimental Procedure
Compounds were tested on human Nav 1.7 and Nav 1.5 channels stably expressed in HEK 293 cells. Sodium current measurements on IonWorks Quattro: An automated patch-clamp assay on the IonWorks Quattro platform (Molecular Devices) was used to measure state-dependent inhibition of human Nav 1.7 and Nav 1.5 channels. Cells were sealed on a planar substrate using the Population Patch Plate (PPC) technology. Electrical access was obtained using both nystatin and amphotericin. A double-pulse protocol was used for the determination of IC50 values for inactivated state block. Nav 1.7 and Nav 1.5 expressing cells were voltage clamped at −100 mV and −110 mV, respectively. A depolarizing prepulse to −10 mV (Nav 1.7) or −30 mV (Nav 1.5) for 1000 ms followed by a 10 ms repolarization to ˜100 mV (Nav1.7) or −110 mV (Nav 1.5) was given to generate fractional channel inactivation of ˜50%, followed by a 10 ms test pulse to −10 mV (Nav 1.7) or −30 mV (Nav 1.5) to measure peak current in control conditions and after compound addition. The following recording solutions were used (mM). External: 150 NaCl, 2 CaCl2, 5 KCl, 1 Mg Cl2, 10 HEPES, 12 Dextrose; internal: 120 CsF, 30 CsCl, 10 EGTA, 5 HEPES, 5 NaF, 2 MgCl2.
For all electrophysiology experiments, offline analysis was used to determine percent inhibition as a function of drug concentration. IC50 values were determined by fitting to the Hill equation.
The various compounds in Examples 1 through 4 and Tables 1 through 3 exemplified above were assayed for activity and selectivity using the foregoing IonWorks® technique. The results are reported in the following paragraph in a format expressing the identification of the compound with reference Example and compound (e.g. Ex 1-9 is Example 1, compound 9) followed by the observed potency in nM and the ratio of Nav1.7 potency: Nav1.5 potency as described here. Thus, Ex1-9: 1.7=65/ratio=641 identifies compound Example 1, compound 9 as having 65 nM potency for the Nav 1.7 sodium ion channel (as measured by IonWorks®) and a ratio of 641 Nav 1.7: Nav 1.5 potency, determined by IonWorks® measurement.

T1 sequence (Q15858 whole entry): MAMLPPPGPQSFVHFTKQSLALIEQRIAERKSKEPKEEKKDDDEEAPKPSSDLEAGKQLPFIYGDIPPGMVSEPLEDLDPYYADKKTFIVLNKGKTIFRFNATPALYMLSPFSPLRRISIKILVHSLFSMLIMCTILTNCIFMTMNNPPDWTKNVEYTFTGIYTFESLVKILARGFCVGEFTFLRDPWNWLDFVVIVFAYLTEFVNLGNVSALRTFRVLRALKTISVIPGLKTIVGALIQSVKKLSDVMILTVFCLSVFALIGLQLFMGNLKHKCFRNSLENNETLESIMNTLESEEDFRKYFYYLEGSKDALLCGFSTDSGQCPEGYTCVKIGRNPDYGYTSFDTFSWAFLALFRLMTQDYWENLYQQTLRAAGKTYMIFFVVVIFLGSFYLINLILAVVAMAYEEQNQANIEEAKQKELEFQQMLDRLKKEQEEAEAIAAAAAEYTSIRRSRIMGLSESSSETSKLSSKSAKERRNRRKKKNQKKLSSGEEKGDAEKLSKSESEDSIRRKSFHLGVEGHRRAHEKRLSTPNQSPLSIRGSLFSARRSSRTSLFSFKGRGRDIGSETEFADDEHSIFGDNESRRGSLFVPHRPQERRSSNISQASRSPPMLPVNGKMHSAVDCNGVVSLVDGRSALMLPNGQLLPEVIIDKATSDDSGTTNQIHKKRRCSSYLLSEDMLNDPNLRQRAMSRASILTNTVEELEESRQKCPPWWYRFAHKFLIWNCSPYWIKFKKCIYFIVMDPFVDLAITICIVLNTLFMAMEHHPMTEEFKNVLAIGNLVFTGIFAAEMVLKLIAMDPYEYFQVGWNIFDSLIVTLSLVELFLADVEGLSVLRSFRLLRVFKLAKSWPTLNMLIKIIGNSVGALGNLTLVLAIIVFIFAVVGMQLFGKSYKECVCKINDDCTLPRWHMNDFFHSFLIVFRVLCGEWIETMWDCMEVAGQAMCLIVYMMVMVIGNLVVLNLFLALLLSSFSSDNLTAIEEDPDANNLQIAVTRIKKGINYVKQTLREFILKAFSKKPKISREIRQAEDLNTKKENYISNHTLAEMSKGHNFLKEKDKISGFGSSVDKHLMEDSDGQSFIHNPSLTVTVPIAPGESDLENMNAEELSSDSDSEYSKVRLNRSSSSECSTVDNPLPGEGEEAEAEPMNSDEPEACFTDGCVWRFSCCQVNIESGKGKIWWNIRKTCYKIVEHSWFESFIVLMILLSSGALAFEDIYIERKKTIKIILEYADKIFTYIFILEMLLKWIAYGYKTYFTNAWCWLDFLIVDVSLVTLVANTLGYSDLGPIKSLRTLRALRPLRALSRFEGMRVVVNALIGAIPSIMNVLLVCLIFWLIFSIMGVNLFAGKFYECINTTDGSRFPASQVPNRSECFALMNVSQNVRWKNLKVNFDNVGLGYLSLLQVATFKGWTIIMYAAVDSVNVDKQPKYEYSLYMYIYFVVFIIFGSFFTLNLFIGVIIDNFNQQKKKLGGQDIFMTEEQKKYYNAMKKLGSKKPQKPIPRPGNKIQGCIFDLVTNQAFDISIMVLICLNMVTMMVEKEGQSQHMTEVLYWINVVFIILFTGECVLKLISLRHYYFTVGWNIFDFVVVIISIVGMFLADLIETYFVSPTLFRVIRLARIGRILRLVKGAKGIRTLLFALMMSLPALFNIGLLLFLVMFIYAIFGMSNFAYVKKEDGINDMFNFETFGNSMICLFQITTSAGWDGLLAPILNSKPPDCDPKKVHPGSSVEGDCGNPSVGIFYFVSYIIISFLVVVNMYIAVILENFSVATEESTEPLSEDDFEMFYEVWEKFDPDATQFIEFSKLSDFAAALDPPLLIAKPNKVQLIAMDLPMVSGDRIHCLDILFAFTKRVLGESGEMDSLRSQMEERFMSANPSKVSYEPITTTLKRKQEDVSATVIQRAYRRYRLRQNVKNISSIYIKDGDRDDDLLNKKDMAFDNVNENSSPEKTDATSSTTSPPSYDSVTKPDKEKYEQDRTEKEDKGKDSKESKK

Question: How did the IC50 turn out when `O=S(=O)(Nc1nccs1)c1cc(Cl)c(NCCCCNCC2Cc3ccccc3CN2)cc1F` (single isomer, unassigned) [Ex 1-19, (S or R)-5-chloro-2-fluoro-4-({4-[(1,2,3,4-tetrahydroisoquinolin-3-ylmethyl)amino]butyl}amino)-N-1,3-thiazol-2-ylbenzenesulfonamide] was run?
Answer: 10 nM

Question: Which IC50 does the source give for `O=S(=O)(Nc1nccs1)c1cc(Cl)c(NCCCCNCC2NCc3ccccc32)cc1F` (single isomer, unassigned) [Ex 2-4 Enantiomer A, (R or S)-5-chloro-2-fluoro-4-((4-((isoindolin-1-ylmethyl)amino)butyl)amino)-N-(thiazol-2-yl)benzenesulfonamide] here?
Answer: 29 nM

Question: Which IC50 does the source give for `O=S(=O)(Nc1nccs1)c1cc(Cl)c(NCCCCNCC2NCc3ccccc32)cc1F` (single isomer, unassigned) [Ex 2-4 Enantiomer B, (S or R)-5-chloro-2-fluoro-4-((4-((isoindolin-1-ylmethyl)amino)butyl)amino)-N-(thiazol-2-yl)benzenesulfonamide] here?
Answer: 21 nM

Question: `NCC1CCN1CCCCNc1cc(F)c(S(=O)(=O)Nc2nccs2)cc1Cl` (single isomer, unassigned) [Ex 16-52, (R or S)-4-({4-[2-(aminomethyl)-azetidin-1-yl]butyl}amino)-5-chloro-2-fluoro-N-1,3-thiazol-2-ylbenzene-sulfonamide] was tested. Which IC50 did it give?
Answer: 31 nM

Question: `O=S(=O)(Nc1nccs1)c1cc(Cl)c(NCCCCN[C@H]2CN[C@H](c3ccccc3)C2)cc1F` [Ex 1-8, 5-chloro-2-fluoro-4-[(4-{[(3R,5S)-5-phenylpyrrolidin-3-yl]amino}butyl)amino]-N-1,3-thiazol-2-ylbenzenesulfonamide] was tested. Which IC50 did it give?
Answer: 11 nM

Question: Which IC50 does the source give for `O=S(=O)(Nc1nccs1)c1cc(Cl)c(NCCCCNCC2Cc3ccccc3CN2)cc1F` (stereo not shown) [Ex 1-9, 5-chloro-2-fluoro-4-({4-[(1,2,3,4-tetrahydroisoquinolin-3-ylmethyl)amino]butyl}amino)-N-1,3-thiazol-2-ylbenzenesulfonamide] here?
Answer: 13 nM

Question: With `N[C@H]1CCN(CCCCNc2cc(F)c(S(=O)(=O)Nc3nccs3)cc2Cl)C1` [Ex 1-11, 4-({4-[(3S)-3-aminopyrrolidin-1-yl]butyl}amino)-5-chloro-2-fluoro-N-1,3-thiazol-2-ylbenzenesulfonamide] as the compound, how does the IC50 read?
Answer: 19 nM

Question: How did the IC50 turn out when `O=S(=O)(Nc1nccs1)c1cc(Cl)c(NCCCCN2CCCC23CCNC3)cc1F` (stereo not shown) [Ex 1-12, 5-chloro-4-{[4-(1,7-diazaspiro[4.4]non-1-yl)butyl]amino}-2-fluoro-N-1,3-thiazol-2-ylbenzenesulfonamide] was run?
Answer: 66 nM

Question: For `O=S(=O)(Nc1nccs1)c1cc(Cl)c(NCCCCN2CC3CCCNC3C2)cc1F` (stereo not shown) [Ex 1-13, 5-chloro-2-fluoro-4-{[4-(octahydro-6H-pyrrolo[3,4-b]pyridin-6-yl)butyl]amino}-N-1,3-thiazol-2-ylbenzenesulfonamide], which IC50 is on record?
Answer: 16 nM

Question: `O=S(=O)(Nc1nccs1)c1cc(Cl)c(NCCCCN2CC[C@@H]3CCNC[C@@H]32)cc1F` [Ex 1-21, 5-chloro-2-fluoro-4-({4-[(3a5,7aR)-octahydro-1H-pyrrolo[2,3-c]pyridin-1-yl]butyl}amino)-N-1,3-thiazol-2-ylbenzenesulfonamide] was tested. Which IC50 did it give?
Answer: 21 nM

Question: With `C[C@H](CNC1CCOCC1)NCCCCNc1cc(F)c(S(=O)(=O)Nc2nccs2)cc1Cl` [Ex 1-26, 5-chloro-2-fluoro-4-[(4-{[(1R)-1-methyl-2-(tetrahydro-2H-pyran-4-ylamino)ethyl]amino}butyl)amino]-N-1,3-thiazol-2-ylbenzenesulfonamide] as the compound, how does the IC50 read?
Answer: 30 nM

Question: `NCC(NCCCCNc1cc(F)c(S(=O)(=O)Nc2nccs2)cc1Cl)c1ccccc1` (stereo not shown) [Ex 1-32, 4-({4-[(2-amino-1-phenylethyl)amino]butyl}amino)-5-chloro-2-fluoro-N-1,3-thiazol-2-ylbenzenesulfonamide] was tested. Which IC50 did it give?
Answer: 16 nM

Question: How did the IC50 turn out when `O=S(=O)(Nc1nccs1)c1cc(Cl)c(NCCCCN2CCC3(CCNC3)C2)cc1F` (stereo not shown) [Ex 1-38, 5-chloro-4-{[4-(2,7-diazaspiro[4.4]non-2-yl)butyl]amino}-2-fluoro-N-1,3-thiazol-2-ylbenzenesulfonamide] was run?
Answer: 44 nM

Question: For `O=S(=O)(Nc1nccs1)c1cc(Cl)c(NCCCCN2CCC23CCCNC3)cc1F` (stereo not shown) [Ex 1-40, 5-chloro-4-{[4-(1,6-diazaspiro[3.5]non-1-yl)-butyl]amino}-2-fluoro-N-1,3-thiazol-2-yl-benzenesulfonamide], which IC50 is on record?
Answer: 110 nM

Question: With `NC1C2CN(CCCCNc3cc(F)c(S(=O)(=O)Nc4nccs4)cc3Cl)CC12` (stereo not shown) [Ex 1-42, 4-{[4-(6-amino-3-azabicyclo[3.1.0]hex-3-yl)butyl]amino}-5-chloro-2-fluoro-N-1,3-thiazol-2-ylbenzenesulfonamide] as the compound, how does the IC50 read?
Answer: 80 nM

Question: For `NC1CCCN(CCCCNc2cc(F)c(S(=O)(=O)Nc3nccs3)cc2Cl)CC1` (stereo not shown) [Ex 1-43, 4-{[4-(4-aminoazepan-1-yl)butyl]amino}-5-chloro-2-fluoro-N-1,3-thiazol-2-ylbenzenesulfonamide], which IC50 is on record?
Answer: 31 nM

Question: Which IC50 does the source give for `NC1CN(CCCCNc2cc(F)c(S(=O)(=O)Nc3nccs3)cc2Cl)C1` [Ex 1-44, 4-{[4-(3-aminoazetidin-1-yl)butyl]amino}-5-chloro-2-fluoro-N-1,3-thiazol-2-ylbenzenesulfonamide] here?
Answer: 29 nM

Question: Which IC50 does the source give for `NCC1(c2ccccc2)CCN(CCCCNc2cc(F)c(S(=O)(=O)Nc3nccs3)cc2Cl)CC1` [Ex 1-45, 4-({4-[4-(aminomethyl)-4-phenylpiperidin-1-yl]butyl}amino)-5-chloro-2-fluoro-N-1,3-thiazol-2-ylbenzenesulfonamide] here?
Answer: 110 nM

Question: How did the IC50 turn out when `NCC1CCCN(CCCCNc2cc(F)c(S(=O)(=O)Nc3nccs3)cc2Cl)C1` (stereo not shown) [Ex 1-46, 4-({4-[3-(aminomethyl)piperidin-1-yl]butyl}amino)-5-chloro-2-fluoro-N-1,3-thiazol-2-ylbenzenesulfonamide] was run?
Answer: 30 nM

Question: Which IC50 does the source give for `NCc1ccccc1CNCCCCNc1cc(F)c(S(=O)(=O)Nc2nccs2)cc1Cl` [Ex 3-4, 4-((4-((2-(aminomethyl)benzyl)amino)butyl)amino)-5-chloro-2-fluoro-N-(thiazol-2-yl)benzenesulfonamide] here?
Answer: 21 nM

Question: For `O=S(=O)(Nc1ncc(F)s1)c1ccc(NCCCCNC[C@@H]2CCCN2)c(Cl)c1` [Ex 7-13, 3-chloro-N-(5-fluoro-1,3-thiazol-2-yl)-4-[(4-{[(2S)-pyrrolidin-2-ylmethyl]amino}butyl)amino]benzenesulfonamide], which IC50 is on record?
Answer: 16 nM

Question: `O=S(=O)(Nc1nccs1)c1cc(Cl)c(NCCCCNC[C@@H]2CC[C@H](c3ccccc3)N2)cc1F` [Ex 8-3, 5-chloro-2-fluoro-4-{[4-({[(2S,5R)-5-phenylpyrrolidin-2-yl]methyl}-amino)butyl]-amino}-N-1,3-thiazol-2-yl-benzenesulfonamide] was tested. Which IC50 did it give?
Answer: 13 nM

Question: With `O=S(=O)(Nc1nccs1)c1cc(Cl)c(NCCCCNC[C@H]2NCC[C@@H]2c2ccccc2)cc1F` [Ex 8-6, 5-chloro-2-fluoro-4-{[4-({[(2S,3R)-3-phenylpyrrolidin-2-yl]-methyl}amino)butyl]amino}-N-1,3-thiazol-2-ylbenzenesulfonamide] as the compound, how does the IC50 read?
Answer: 21 nM

Question: Which IC50 does the source give for `O=S(=O)(Nc1nccs1)c1cc(Cl)c(NCCCCNC[C@@H]2C[C@H](c3ccccc3)CN2)cc1F` [Ex 8-13, 5-chloro-2-fluoro-4-{[4-({[(2S,4R)-4-phenylpyrrolidin-2-yl]-methyl}amino)-butyl]amino}-N-1,3-thiazol-2-yl-benzenesulfonamide] here?
Answer: 16 nM

Question: How did the IC50 turn out when `O=S(=O)(Nc1nccs1)c1cc(Cl)c(NCCCCNC[C@H]2CC(F)(F)CN2)cc1F` [Ex 8-15, 5-chloro-4-{[4-({[(2R)-4,4-difluoropyrrolidin-2-yl]-methyl}amino)butyl]amino}-2-fluoro-N-1,3-thiazol-2-yl-benzenesulfonamide] was run?
Answer: 66 nM

Question: Which IC50 does the source give for `O=S(=O)(Nc1cccc(F)n1)c1cc(Cl)c(NCCCCCNC[C@@H]2CCCN2)cc1F` [Ex 9-2, (S)-5-chloro-2-fluoro-N-(6-fluoropyridin-2-yl)-4-((5-((pyrrolidin-2-ylmethyl)amino)pentyl)amino)benzenesulfonamide] here?
Answer: 29 nM

Question: How did the IC50 turn out when `O=S(=O)(Nc1nccs1)c1cc(Cl)c(NCCCCCNCC2CCCCN2)cc1F` (stereo not shown) [Ex 9-03, 5-chloro-2-fluoro-4-({5-[(piperidin-2-ylmethyl)-amino]pentyl}amino)-N-1,3-thiazol-2-yl-benzenesulfonamide] was run?
Answer: 19 nM

Question: Which IC50 does the source give for `O=S(=O)(Nc1nccs1)c1cc(Cl)c(NCC(F)(F)CCNC[C@@H]2CCCN2)cc1F` [Ex 11-11, 5-chloro-4-[(2,2-difluoro-4-{[(2S)-pyrrolidin-2-ylmethyl]amino}butyl)amino]-2-fluoro-N-1,3-thiazol-2-ylbenzenesulfonamide] here?
Answer: 49 nM
